In patent US11026914B2 (DelMar Pharmaceuticals, Inc., priority 2013, dated 2021):
Read-outs that look alike come from different tables or passages of the source.

Legend:
[1] = test system: GBM; conditions: cited from earlier work
[2] = test system: intracranial U251 human glioma tumors
Source text: However, TMZ-resistance has emerged as a significant unmet medical need, as DNA repair enzyme O^6-methylguanine DNA methyltransferase (MGMT) removes the methyl-group adducts caused by TMZ. […] We thus sought to investigate how our CSC and non-CSC panel would respond to VAL-083 alone or in combination with XRT. We further investigated the activity of VAL-083 in in vivo models of drug-resistant GBM in comparison to TMZ. Rag2 mice bearing intracranial human GBM xenograft tumors of either MGMT-positive and TMZ-resistant origin (BT74), or MGMT-negative and TMZ-sensitive origin (U251) were treated. VAL-083 was given i.p. 3 times/week×3 weeks, and the efficacy of VAL-083 in controlling tumor growth compared to TMZ (30 mg/kg). Disease progression was evaluated by overall survival, clinical observations and body weight measurements.
On study day 0 for each set of mice, 44 female Rag2 mice were inoculated intracranially in the right caudate-putamen nucleus (coordinates: ML-1.5 mm; AP 1 mm; DV −3.5 mm) with 7.5×10^4 U251 human glioma cells.

[3] = target: glycogen synthase kinase-3β (GSK-3β) (Homo sapiens, UniProt P49841); conditions: cited from earlier work
[4] = test system: cancer stem cells (BT74, GBM4 and GBM8); conditions: BT74, GBM4 and GBM8, neurosphere growth assays; cited from earlier work
[5] = Plasma pharmacokinetics in brain tumor patients after IV infusion (WinNonlin non-compartmental analysis); format: in vivo, human; conditions: for dose dependence of systemic exposure: dose escalation in patients
Procedure: Plasma drug concentration analysis data were analyzed using WinNonlin®, version 2.1A software (Pharsight Inc., Mountain View, Calif.) and Microsoft Office Excel 2007. Pharmacokinetic analysis was conducted by Dr. Sarath Kanekal, Ph.D. Use of MS Excel was limited to receipt of raw data, transfer into WinNonlin and generation of tables (Mean and SD) and graphs for the report.
The starting dose for Cohort #1 was 1.5 mg/m^2 IV daily×3 every 21 days. Cohorts 2 and 3 received DAG at doses of 3.0 and 5.0 mg/m^2 IV daily×3 every 21 days, respectively; cohort 4 received 10 mg/m^2. Dose escalation beyond 10 mg/m^2, up to 40 mg/m^2 IV daily×3 every 21 days is planned in the ongoing trial. Sample collection was on Day 1 at each dose level at the following time points: pre-dose, and 0.25, 0.5, 1, 2, 4, 6 h 15±5 minutes, 30±5 minutes, 60±10 minutes, 120±10 minutes, 240±15 minutes, and 360±15 minutes after the end of the IV study drug administration and immediately prior to Cycle 1, Day 2 of dosing. Drug concentration data was received from at least 3 patients for cohorts 1, 2 and 3, but only from 2 patients in cohort 4.
For the purposes of this interim analysis a fixed constant infusion time of 30 minutes and nominal collection time intervals were used for all patients. […] For the final PK analysis individual patient infusion time and exact collection time are used.
Pharmacokinetic analyses were performed on the plasma concentration versus time data using WinNonlin (Ver 2.1A) via non-compartmental analysis (NCA). A model for constant infusion (WinNonlin Model #202) was used for the analyses. Uniform weighting was used for all data. AUCall was calculated by the linear trapezoid rule and t1/2 of lambda z was used for estimating the terminal half-life. The last 2 or 3 concentrations above LLOQ were used for calculating lambda z. For clearance (CL) and Volume of Distribution (Vz), observed CL and observed Vz values outputted by WinNonlin are reported here. All plasma concentrations measurements reported as below the limit of quantitation (BLQ) was set equal to zero, and those reported as NS (no sample), if any, were left blank and treated as missing. Mean concentration and WinNonlin derived parameters are presented with standard deviation.

[6] = test system: progressive secondary brain tumor; test: Phase I/II dose-escalation study: tumor response in progressive secondary brain tumor patients; format: in vivo, human; conditions: n = 6
Source text: (2) There is evidence of leptomeningeal spread of disease.
Outcomes analysis of cohort 6 is ongoing.

[7] = test system: normal human neural stem cells; conditions: neurosphere growth assays; cited from earlier work
[8] = test system: GBM cell lines SF188, U251, and T98G; test: Inhibition of tumor cell growth in GBM cell lines (FIG. 1, FIG. 6); format: cell-based, human; conditions: independent of MGMT
[9] = human, in vivo
Source text: (§1) The study utilizes a 3+3 dose escalation design, until the MTD or the maximum specified dose is reached. […] In Phase II, additional patients will be treated at the MTD (or other selected optimum Phase II dose) to measure tumor responses. […] For these studies, the following is a summary of the inclusion criteria: (1) Patients must be greater than or equal to 18 years old. […] The following is a summary of the exclusion criteria: (1) There is a current history of neoplasm other than the entry diagnosis. Patients with previous cancers treated and cured with local therapy alone may be considered. (2) There is evidence of leptomeningeal spread of disease.
Open-label, single-arm Phase I/II dose-escalation study in patients with histologically-confirmed initial diagnosis of primary WHO Grade IV malignant glioma (glioblastoma). […] The study utilizes a 3+3 dose-escalation design.

[10] = test system: recurrent glioblastoma multiforme (GBM); test: Phase I/II dose-escalation study: tumor response (RANO) in recurrent GBM patients
Source text: as §1
Higher doses may be enrolled subject to completion of mandated safety observation period with Cohort 6 (30 mg/m^2). Patients enrolled present with refractory progressive GBM and a dire prognosis. […] The primary endpoint of this portion of the study is to determine a modernized dosing regimen for advancement to registration-directed clinical trials. […] In this design, it is not possible to perform a rigorous assessment of patient benefit due to slowed tumor growth. Tumor volume is assessed during the study based on RANO criteria.
Open-label, single-arm Phase I/II dose-escalation study in patients with histologically-confirmed initial diagnosis of primary WHO Grade IV malignant glioma (glioblastoma). […] The study utilizes a 3+3 dose-escalation design. […] The RANO (Response Assessment in Neuro-Oncology) criteria divide responses into four general categories: complete response, partial response, stable disease, and regression.

Sequence of glycogen synthase kinase-3β (GSK-3β) (P49841 whole entry, species assumed): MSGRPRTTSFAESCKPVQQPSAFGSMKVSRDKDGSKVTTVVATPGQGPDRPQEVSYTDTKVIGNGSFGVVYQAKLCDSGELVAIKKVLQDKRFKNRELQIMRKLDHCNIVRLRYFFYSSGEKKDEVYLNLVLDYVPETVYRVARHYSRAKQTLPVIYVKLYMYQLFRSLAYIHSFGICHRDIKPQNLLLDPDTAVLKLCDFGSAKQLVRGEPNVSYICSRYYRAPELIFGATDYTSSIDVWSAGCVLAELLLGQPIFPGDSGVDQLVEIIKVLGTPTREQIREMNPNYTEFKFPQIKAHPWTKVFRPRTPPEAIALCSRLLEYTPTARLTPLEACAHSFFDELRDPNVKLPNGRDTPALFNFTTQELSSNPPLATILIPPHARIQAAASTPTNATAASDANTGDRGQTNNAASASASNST

Compound: Cn1nnc2c(C(N)=O)ncn2c1=O [temozolomide]
- DLT ([1]; GBM, historical data): Hematologic
- Nadir ([1]; GBM, historical data): 21 to 28 days
- Recovery ([1]; GBM, historical data): Within 14 days
- day of termination at the end of the study ([2]; TMZ 30 mg/kg): 102 days

Compound: O=NN(CCCl)C(=O)NCCCl [Carmustine]
- Median O.S. (XRT + Chemo) ([1]; GBM, historical data): 40-50 weeks
- Nadir ([1]; human, in vivo): 21 to 35 days

Compound: CN1C(=O)/C(=C2/C(=O)Nc3ccccc32)c2ccccc21 [meisoindigo]
- concentration for inhibition of GSK-3β [3]: 5 to 50 nM

Compound: O[C@H]([C@H](O)[C@@H]1CO1)[C@H]1CO1 [dianhydrogalactitol]
- inhibition of growth of cancer stem cells [4]: 80-100%
- average Cmax ([5]; 10 mg/m^2): < 0.2 µg/mL
- Cmax ([5]; 20 mg/m^2, average): 0.18 µg/mL
- AUC ([5]; Cohort 1, 1.5 mg/m^2): 0.0189 µg·h/mL
- Cmax ([5]; Cohort 1, 1.5 mg/m^2): 0.0165 µg/mL
- Tmax ([5]; Cohort 1, 1.5 mg/m^2): 15 min
- t-½ ([5]; Cohort 1, 1.5 mg/m^2): 2.02 h
- AUC ([5]; Cohort 2, 3 mg/m^2): 0.0485 µg·h/mL
- Cmax ([5]; Cohort 2, 3 mg/m^2): 0.0464 µg/mL
- Tmax ([5]; Cohort 2, 3 mg/m^2): 15 min
- t-½ ([5]; Cohort 2, 3 mg/m^2): 0.83 h
- AUC ([5]; Cohort 3, 5 mg/m^2): 0.108 µg·h/mL
- Cmax ([5]; Cohort 3, 5 mg/m^2): 0.0805 µg/mL
- Tmax ([5]; Cohort 3, 5 mg/m^2): 15 min
- t-½ ([5]; Cohort 3, 5 mg/m^2): 1.27 h
- AUC ([5]; Cohort 4, 10 mg/m^2): 0.1917 µg·h/mL
- Cmax ([5]; Cohort 4, 10 mg/m^2): 0.172 µg/mL
- Tmax ([5]; Cohort 4, 10 mg/m^2): 15 min
- t-½ ([5]; Cohort 4, 10 mg/m^2): 1.19 h
- time of peak concentration after initiation of the intravenous infusion ([5]; all dose levels 1.5-10 mg/m^2): 0.25
- time for plasma concentrations to return to near baseline after dosing ([5]; cohorts 1-4): ≤ 8 h
- dose dependence of systemic exposure [5]: dose-dependent linear systemic exposure
- dose dependence of systemic exposure ([5]; listed as DAG): more than dose proportional increase in exposure
- dose dependence of systemic exposure ([5]; listed as Dianhydrogalactitol): dose-dependent increase in exposure
- dose dependence of systemic exposure ([5]; listed as VAL-083): dose-dependent linear systemic exposure
- plasma half-life ([5]; patients, IV): 60 to 120 min
- plasma terminal half-life ([5]; patients, IV): 60 to 120 min
- Tumor Response, Overall [6]: 17%
- Tumor Response, type (number of patients) [6]: SD (1)
- effect on normal human neural stem cells [7]: minimal effect
- inhibition of tumor (cell) growth compared with TMZ [8]: better than TMZ
- Recovery ([1]; GBM, historical data): Within 7-8 days
- efficacy in combination with radiation versus radiation alone ([1]; human, in vivo, iv): superior to radiation alone
- DLT ([1]; human, in vivo): Hematologic
- Median O.S. (XRT + Chemo) ([1]; human, in vivo): 67 weeks
- Nadir ([1]; human, in vivo): 18 to 21 days
- Other Severe Toxicities Reported (>2%) ([1]; human, in vivo): None
- median survival time ([2]; 3 mg/kg i.p. 3 times/week x 3 weeks): 54 days
- median survival time ([2]; 4 mg/kg i.p. 3 times/week x 3 weeks): 72 days
- median survival time ([2]; 5 mg/kg i.p., 4 doses only): 57 days
- maximum tolerated dose (MTD), as 33 day cycle cumulative dose [9]: > 120 mg/m^2
- tumor response in cohort 6 ([10]; 30 mg/m^2, after 1 cycle, one of two patients): exhibited stable disease
- Tumor Response, Overall ([10]; GBM patients, n = 8): 25%
- Tumor Response, type (number of patients) ([10]; GBM patients, n = 8): PR (1); SD
- MRI scans, abnormal enhancement ([10]; Patient #26, T=0 vs T=64 days, after two cycles): Thick confluent regions of abnormal enhancement have diminished
- patients exhibiting a response (stable disease or partial response) ([10]; early cohorts, Example 1): Two patients exhibiting a response
